According to patent publication US20200016122A1, “METHOD FOR REDUCING ITCHING IN ATOPIC DERMATITIS” (priority 2018, published 2020):

What was measured:
Kwl:ICR mice = conditions: mouse, in vivo, 14 days
Description: (§1) The present inventors performed single oral dose toxicity tests (2,000 mg/kg) for N-nonanoyltryptamine over 14 days using Kwl:ICR mice. […] Patch tests were performed on human skin, the skin irritation index was 0.0, and the safety was confirmed (LIFE SCIENCE LABORATORIES, LTD., June 2011).

goats = type: in vivo; conditions: 1.0 mg/50 kg/day over 4 years
human skin = test: patch test on human skin; type: in vivo; conditions: patch tests on human skin
Description: as §1

CCCCCCCCC(=O)NCCc1c[nH]c2ccccc12 [N-nonanoyltryptamine]
lethal dose (Kwl:ICR mice): ≥ 2,000 mg/kg | breeding effect (goats): strong breeding effect | skin irritation index (human skin): 0.0
